How the values were obtained:
Assay type in all cases: cell-based
hERG = target: T1, hERG (Homo sapiens, UniProt Q12809); test: hERG patch clamp assay (automated, CHO-hERG cells)
T1 construct: host or cells: CHO (Chinese hamster ovary)
Procedure: The hERG inhibition assay uses a high throughput single cell planar patch clamp approach. Chinese hamster ovary cells transfected with the hERG gene (CHO-hERG) are dispensed into the PatchPlate. Amphotericin is used as a perforating agent to gain electrical access to the cells. The hERG tail current is measured prior to the addition of the test compound by perforated patch clamping. Following addition of the test compound at a defined concentration or range of concentrations a second recording of the hERG current is performed. The degree of inhibition (%) is obtained by measuring the tail current amplitude, which is induced by a one second test pulse to −40 mV after a two second pulse to +20 mV, before and after drug incubation (the difference current is normalized to control and multiplied by 100 to obtain the percent of inhibition).
Concentration (log) response curves were fitted to a logistic equation (three parameters assuming complete block of the current at very high test compound concentrations) to generate estimates of the 50% inhibitory concentration (IC50). The concentration-response relationship of each compound is constructed from the percentage reductions of current The data is usually categorized into the following classification bands:
The hERG assay was conducted by Cyprotec Inc. in its Watertown, Mass. laboratories. The concentration range tested was 0.0096-30 μM. No concentration-dependent inhibition was observed, IC50>30 μM.
The hERG inhibition assay uses a high throughput single cell planar patch clamp approach. Chinese hamster ovary cells transfected with the hERG gene (CHO-hERG) are dispensed into the PatchPlate. Amphotericin is used as a perforating agent to gain electrical access to the cells. The hERG tail current is measured prior to the addition of the test compound by perforated patch clamping. Following addition of the test compound, n=4 cells per concentration, final DMSO concentration=0.25%), a second recording of the hERG current is performed.
Post-compound hERG currents are expressed as a percentage of pre-compound hERG currents (% control current) and plotted against concentration for each compound. Where concentration dependent inhibition is observed the Hill equation is used to fit a sigmoidal line to the data and an IC50 (concentration at which 50% inhibition is observed) is determined. The assays were performed according to Haverkamp, W. et al., 2000, Eur Heart J., 21:1216-1231, Kiss, L. et al., 2003, Assay Drug Dev. Technol., 1:127-135 and Schroeder, K. et al., 2003, J. Biomol Screen, 8:50-64.

hepatocyte = test: Hepatocyte viability assay (CEREP)
Procedure: See, Tables 4b and Scheme 18. The hepatocyte cell viability assays were performed by CEREP, Seattle, Wash., according to Mosmann, T., 1983, J. Immunol. Met. 65:55-62.

TLR7 = target: T2, TLR7 (Homo sapiens, UniProt Q9NYK1); test: Antagonist/agonist competitive inhibition cross titration (TLR7 agonist JB6011); settings: antagonist 10 uM to 4 nM vs agonist 0.12-3.3 μM; preliminary, one assay
T2 sequence (Q9NYK1 27-1049): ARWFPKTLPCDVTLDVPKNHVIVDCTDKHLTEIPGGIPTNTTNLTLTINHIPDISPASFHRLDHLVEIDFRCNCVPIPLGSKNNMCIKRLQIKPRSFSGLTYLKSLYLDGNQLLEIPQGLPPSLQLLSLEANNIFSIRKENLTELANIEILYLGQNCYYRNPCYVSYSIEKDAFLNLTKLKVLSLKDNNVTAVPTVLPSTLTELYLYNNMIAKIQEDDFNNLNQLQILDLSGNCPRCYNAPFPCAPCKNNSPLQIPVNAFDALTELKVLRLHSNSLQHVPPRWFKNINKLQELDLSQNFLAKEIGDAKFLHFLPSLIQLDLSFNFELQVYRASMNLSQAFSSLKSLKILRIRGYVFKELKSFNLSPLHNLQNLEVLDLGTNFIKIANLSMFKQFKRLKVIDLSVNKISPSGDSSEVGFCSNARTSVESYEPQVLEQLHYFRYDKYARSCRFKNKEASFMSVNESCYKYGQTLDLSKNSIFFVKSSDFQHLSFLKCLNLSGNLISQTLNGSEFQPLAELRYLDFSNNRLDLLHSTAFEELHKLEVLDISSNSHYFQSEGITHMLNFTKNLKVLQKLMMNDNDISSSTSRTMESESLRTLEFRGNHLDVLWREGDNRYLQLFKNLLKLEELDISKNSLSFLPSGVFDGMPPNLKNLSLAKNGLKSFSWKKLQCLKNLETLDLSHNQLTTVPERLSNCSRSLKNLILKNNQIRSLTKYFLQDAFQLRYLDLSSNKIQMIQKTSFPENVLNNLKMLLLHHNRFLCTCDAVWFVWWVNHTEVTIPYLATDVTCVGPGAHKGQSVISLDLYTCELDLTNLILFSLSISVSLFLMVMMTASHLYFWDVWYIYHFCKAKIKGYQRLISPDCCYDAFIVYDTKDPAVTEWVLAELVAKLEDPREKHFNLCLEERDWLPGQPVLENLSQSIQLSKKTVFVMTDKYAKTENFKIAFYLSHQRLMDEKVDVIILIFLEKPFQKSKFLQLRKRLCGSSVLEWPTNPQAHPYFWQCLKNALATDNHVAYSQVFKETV
Procedure: In preliminary results (i.e., one assay result—repeat assays in process), a cross titration of antagonist versus agonist was performed to determine the form of antagonist binding. JB6121 was titrated from 10 uM to 4 nM against various concentrations of challenge agonist. The small molecule TLR7 agonist JB6011 was used. The graph below, while crude, implies that the inhibition of the TLR7 agonist by JB6121 is competitive in nature due to the parallel tracking of the curves as the agonist dose is increased. The agonist range for this experiment was between 0.12 and 3.3 μM or about a 30-fold range.

T1 sequence (Q12809 whole entry): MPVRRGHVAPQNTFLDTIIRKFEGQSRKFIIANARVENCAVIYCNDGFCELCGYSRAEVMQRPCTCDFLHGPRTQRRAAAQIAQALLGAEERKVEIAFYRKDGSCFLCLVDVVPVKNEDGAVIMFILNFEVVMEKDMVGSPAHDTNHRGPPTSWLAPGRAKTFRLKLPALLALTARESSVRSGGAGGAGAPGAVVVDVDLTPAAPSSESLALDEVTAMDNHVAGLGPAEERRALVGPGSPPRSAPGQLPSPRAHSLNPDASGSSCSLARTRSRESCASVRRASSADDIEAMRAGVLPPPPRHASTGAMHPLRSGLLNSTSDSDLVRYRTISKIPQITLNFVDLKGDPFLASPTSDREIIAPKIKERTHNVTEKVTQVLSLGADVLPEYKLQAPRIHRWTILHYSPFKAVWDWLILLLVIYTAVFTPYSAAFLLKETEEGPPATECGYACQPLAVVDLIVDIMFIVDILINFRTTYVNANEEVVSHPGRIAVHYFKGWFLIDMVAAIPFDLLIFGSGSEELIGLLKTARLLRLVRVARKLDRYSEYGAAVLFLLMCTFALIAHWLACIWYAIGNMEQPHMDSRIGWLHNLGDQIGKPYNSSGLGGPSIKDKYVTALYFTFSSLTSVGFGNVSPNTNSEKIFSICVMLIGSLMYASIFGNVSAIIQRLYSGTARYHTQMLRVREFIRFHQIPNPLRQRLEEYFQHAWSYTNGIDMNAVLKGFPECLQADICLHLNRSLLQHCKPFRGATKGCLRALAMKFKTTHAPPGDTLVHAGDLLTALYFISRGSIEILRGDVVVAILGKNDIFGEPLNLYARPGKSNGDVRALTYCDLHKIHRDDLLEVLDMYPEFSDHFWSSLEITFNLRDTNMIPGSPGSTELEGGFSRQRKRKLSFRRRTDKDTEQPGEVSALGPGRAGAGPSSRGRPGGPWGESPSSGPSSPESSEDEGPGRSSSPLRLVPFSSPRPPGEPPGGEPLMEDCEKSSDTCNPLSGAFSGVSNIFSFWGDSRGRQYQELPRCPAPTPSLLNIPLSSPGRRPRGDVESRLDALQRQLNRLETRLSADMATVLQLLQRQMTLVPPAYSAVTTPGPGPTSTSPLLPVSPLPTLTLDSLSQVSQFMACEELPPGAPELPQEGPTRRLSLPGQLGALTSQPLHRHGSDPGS

Compound	IC50 (hERG; Table 4b)	% Hepatocyte viability 24 h at 50 μM (hepatocyte)	IC50 (hERG; hERG patch clamp assay, FIG. 1)	% Hepatocyte viability 24 h at 100 μM (hepatocyte)	further results
C[C@@H]1CN(CCNc2nc3nc(N4CCN(C)CC4)nc(NCCN4C[C@@H](C)O[C@@H](C)C4)c3nc2Cl)C[C@H](C)O1 [JB6143]	> 30 µM	74%			
Clc1nc2c(NCCN3CCOCC3)nc(NCc3ccccc3)nc2nc1NCCN1CCOCC1 [JB6172]	1 µM	51%			
CN1CCN(c2nc3nc(-c4ccccc4)nc(NCCN4CCOCC4)c3nc2OCCN2CCOCC2)CC1 [JB6116]			13.1 µM	69%	IC50 (hERG; human, CHO cells transfected with hERG (CHO-hERG), Table 4b): < 30 µM
CN1CCN(c2nc(NCCN3CCOCC3)c3nc(Cl)c(NCCN4CCOCC4)nc3n2)CC1 [JB6121, 6-chloro-2-(4-methylpiperazin-1-yl)-N^4,N^7-bis(2-morpholinoethyl)pteridine-4,7-diamine]	> 30 µM			92%	IC50 (hERG; Cyprotec, concentration range tested 0.0096-30 μM): > 30 µM; hERG inhibition (hERG; up to 30 μM): no measurable hERG inhibition; form of antagonist binding: inhibition of the TLR7 agonist JB6011 (TLR7): competitive
CCOc1nc2c(NCCN3CCCC3)nc(-c3ccccc3)nc2nc1N1CCN(C)CC1 [JB6131]	< 10 µM		8.1 µM	11%	
CCCCNc1nc(NCCN2CCOCC2)c2nc(SCC)c(NCCN3CCOCC3)nc2n1 [JB6185]	< 0.3 µM	0%			
CN1CCN(c2nc(NCCN3CCOCC3)c3ncc(-c4ccccc4)nc3n2)CC1 [JB6059]	5 µM		6.2 µM	69%	
CCOc1nc2c(NCCN3CCOCC3)nc(NCc3ccccc3)nc2nc1NCCN1CCOCC1 [JB6180]	0.3 µM	13%			
CCCCNc1nc(NCCN2CCOCC2)c2nc(Cl)c(NCCN3CCOCC3)nc2n1 [JB6140]	< 1 µM	59%			form of antagonist binding: inhibition of the TLR7 agonist JB6011 (TLR7): comparable result
COCCN1CCN(c2nc(NCCN3CCOCC3)c3nc(Cl)c(NCCN4CCOCC4)nc3n2)CC1 [JB6160]	> 30 µM	47%			

Reference: patent US20170275287A1, “NOVEL N2, N4, N7, 6-TETRASUBSTITUTED PTERIDINE-2,4,7-TRIAMINE AND 2, 4, 6, 7-TETRASUBSTITUTED PTERIDINE COMPOUNDS AND METHODS OF SYNTHESIS AND USE THEREOF” (Janus Biotherapeutics, Inc., priority 2014, published 2017)
